Results as given in US20260325605A1, “INHIBITORS” (Zealand Pharma A/S, priority 2022, published 2026).
Read-outs that look alike come from different tables or passages of the source.

Tests used:
[1] = molecular target: T1, Kv1.1 (Homo sapiens, UniProt Q09470); assay: Patch clamp assay (QPatch), Kv1.1; format: cell-based; conditions: for IC50: QPatch, CHO cells stably expressing human Kv1.1, read-out: Potency IC50, Kv1.1; for Selectivity Kv1.1/Kv1.3: ratio of IC50 Kv1.1/Kv1.3
T1 construct: expressed in transfected cells

[2] = molecular target: T2, Kv1.6 (Homo sapiens, UniProt P17658); assay: Patch clamp assay (QPatch), Kv1.6; format: cell-based; conditions: for IC50: QPatch, CHO cells stably expressing human Kv1.6, read-out: Potency IC50, Kv1.6; for Selectivity Kv1.6/Kv1.3: ratio of IC50 Kv1.6/Kv1.3
T2 construct: expressed in transfected cells
Method: (§1) Selectivity of Kv1.3 inhibitor peptides for Kv1.3 over other potassium ion channels (Kv1.1, Kv1.2 and Kv1.6) was determined using patch clamp assay.
(§2) Chinese Hamster Ovary (CHO) cell lines stably expressing exogenous human α-subunits of each potassium ion channel were grown and passaged under standard culture conditions.
(§3) The automated, chip-based planar patch clamp device QPatch® was used to quantitate the ionic currents. All recordings were made in the conventional whole-cell configuration after establishment of gigaohm seals. […] During experiments 0.1% (v/v) BSA was included as a vehicle in all external recording solutions. Currents were elicited from a holding potential of −80 mV using a voltage protocol, which shifted the voltage to 30 mV for 500 ms every 15 s.
(§4) Concentration-response relationships were established by cumulatively applying seven escalating concentrations of test sample to an individual cell with a recording period of 2 min per compound application.
(§5) The efficacy was determined as the mean charge for the last three sweeps at the end of each concentration application period from the cursor positions. The percent inhibition for each test dose application period was calculated as the reduction in mean cursor value (charge) relative to the cursor value measured at the end of the vehicle period and used to calculate the IC50 from the concentration response curve.

[3] = system: T-cell activation in rat whole blood; assay: Example 4: IL-17A release in thapsigargin stimulated rat whole blood; format: cell-based, rat (Lewis or Sprague-Dawley); conditions: 24 Hr, at least 2 replicates, unit inferred, read-out: IC50 (inhibition of IL-17A release)
In short: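 Heparinised whole blood from naïve Lewis or Sprague-Dawley rats preincubated ≥5 min at RT with peptide, then stimulated with thapsigargin (40 μM stock added as one quarter of well volume) for 24 h at 37 °C. Supernatant IL-17A measured by ELISA; IC50 from curves normalised to stimulated and unstimulated controls, ≥2 replicates.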

[4] = molecular target: T3, Kv1.2 (Homo sapiens, UniProt P16389); assay: Patch clamp assay (QPatch), Kv1.2; format: cell-based; conditions: for IC50: QPatch, CHO cells stably expressing human Kv1.2, read-out: Potency IC50, Kv1.2; for Selectivity Kv1.2/Kv1.3: ratio of IC50 Kv1.2/Kv1.3
T3 construct: expressed in transfected cells
Method: as §1, §2, §3, §4, §5

[5] = molecular target: T4, Kv1.3 (Homo sapiens, UniProt P22001); assay: Patch clamp assay (QPatch), Kv1.3; format: cell-based; conditions: CHO cells stably expressing human Kv1.3, read-out: Potency IC50, Kv1.3
T4 construct: expressed in transfected cells
Method: as §1, §2, §3, §4, §5

[6] = system: T-cell activation in human whole blood; assay: Example 5: IFN-g, IL-2 and IL-17A release in thapsigargin stimulated human whole blood; format: cell-based; conditions: 24 Hr, at least 2 replicate experiments
Description: Human whole blood was used to assess the potency of Kv1.3 inhibitor peptides on T-cell activation as determined by release of the cytokines IFN-g, IL-2 and IL-17A after stimulation with thapsigargin. Addition of thapsigargin activates a signalling cascade resulting in T cell proliferation and cytokine production, in which the Kv1.3 ion channel plays a key role. Activity of Kv1.3 inhibitors in human primary T cells can thus be measured in this experimental system.
Human whole blood was obtained from healthy blood donors and was collected after informed consent using Sodium Heparin blood sampling tubes (Becton, Dickinson and Company (BD), Cat #367876). Test peptides were diluted to 4× final testing concentrations in assay buffer (Dulbecco's Modified Eagle's medium (DMEM) with high glucose and GlutaMAX (3.97 mM L-alanine-L-glutamine) (Gibco Cat #61965026) supplemented with 25 mM HEPES buffer, 1 mM Sodium Pyruvate, 100 units/ml Penicillin, 100 μg/ml Streptomycin and 0.05% Casein from bovine milk (Sigma-Aldrich Cat #C4765)) and 25 μl was added to wells of a 96 well tissue culture plate. Then 50 μl human whole blood was added and incubated for minimum 5 minutes at room temperature to allow compound binding. Then 25 μl of 40 μM thapsigargin diluted in assay buffer was added to all wells of the assay plates to activate the cells, followed by incubation for 24 Hr at 37° C./5% CO2 in a humidified box. The assay plates were centrifuged for 10 min at 300 g at 4° C. and the supernatants were transferred to new plates. The concentrations of IFN-g, IL-2 and IL-17A released to the supernatants were measured using a tri-plex human cytokine detection kit (MSD Human U-Plex IFN-g, IL-2 and IL-17A kit; Meso Scale Discovery Cat #K15067L-2) and all three cytokines were measured using a MSD MESO QuickPlex SQ 120 instrument as described by the manufacturer (Meso Scale Discovery, Rockville, Maryland, USA).
To determine the potency of inhibition for the compounds, the cytokine concentration data were fitted using a three parameter logistic dose response model based on the formula Y=Bottom+(Top−Bottom)/(1+IC50/X), where Y is measured cytokine concentrations, X is compound concentrations and Top, bottom and IC50 are parameters fitted using the software Graphpad Prism version 5.04. The IC50 value calculated from the concentration response curve represents the compound concentration that gives an inhibition response halfway between the basal (Bottom) response and the maximal (Top) response.
All values are derived from at least 2 replicate experiments. All of the tested Kv1.3 blockers were able to inhibit cytokine production from human T cells present in human whole blood that was stimulated with thapsigargin.

[7] = system: human peripheral blood mononuclear cells (PBMCs); assay: Example 3a: IL-2 release from anti-CD3 stimulated human PBMCs; format: cell-based; conditions: for IC50: human PBMCs, 5 donors, anti-CD3 0.5 μg/mL, geometric mean, at least 4 replicates, read-out: anti-CD3 PBMC/ IL-2 IC50
Method: Human peripheral blood mononuclear cells (PBMCs) were used to assess the effects of Kv1.3 inhibitor peptides on T-cell activation as determined by IL-2 (cytokine) release after stimulation with anti-CD3.
Human PBMCs were obtained from Precision for Medicine (Frederick, MD). Cells from 5 donors were used. Plate-bound anti-CD3 was used to stimulate bulk T cells in the PBMC preparations. Briefly, 96-well plates were coated with anti-CD3 antibody for 2 hrs at 37° C., using 50 μL of a 0.5 μg/mL anti-CD3 solution diluted in 1×PBS. Thereafter the plates were washed twice.
Cyclosporin A (1 ug/ml) and Vm24 peptide (100 nM) were used as positive controls. Finally, 1×10^5 PBMCs were added to each well in a volume of 100 μL, giving a final volume of 200 μL per well. The plates were incubated for 20-24 hours in a 37° C./5% CO2 incubator. After centrifugation of the plates, 25 μl supernatant was transferred to IL-2 detection plates (MSD Human IL-2 Tissue Culture Kit, cat #K151AHB-2) and IL-2 was measures as described by the manufacturer (Meso Scale Discovery, Rockville, Maryland, USA).
All values derive from at least 4 replicates.

[8] = Example 6: Pharmacokinetic characterisation after s.c. administration; format: in vivo, rat (Sprague Dawley or Wistar); conditions: rat, 70 nmol/kg; for AUCINF / Cmax: plasma; for T1/2: plasma terminal elimination half-life
Method: Sprague Dawley or Wistar rats (males with a body weight of approximately 250-350 g) were given a single subcutaneous (s.c.) injection of each peptide to be tested.
Following s.c. administration of the selected peptides (dose 70 nmol/kg, dosing volume either 2 or 5 mL/kg), blood samples were drawn at 15 min, 30 min, 45 min, 60 min, 90 min, 2 h, 3 h, 4 h post-dose. At each sampling time point, samples from the rats were drawn by sublingual bleeding or by tail cut. After last sampling the rats were sacrificed by O2/CO2 anaesthesia. The dosing vehicle was 10 mM phosphate, 0.8% NaCl, 0.05% Polysorbate 20 (pH 6.0).
Plasma samples were analyzed after solid phase extraction (SPE) by liquid chromatography mass spectrometry (LC-MS/MS). Mean plasma concentrations were used for calculation of the pharmacokinetic parameters using the non-compartmental approach in Phoenix WinNonlin 6.4 or a later version. […]. AUCinf is the area under the plasma concentration−time curve extrapolated to infinity (AUCinf=AUClast+Clast/λz, where Clast is the last observed plasma concentration). Cmax is the maximum observed concentration, occurring at Tmax.

[9] = system: human peripheral blood mononuclear cells (PBMCs); assay: Example 3b: IL-2 release from anti-CD3 stimulated human PBMCs; format: cell-based; conditions: 5 donors, anti-CD3 1 μg/ml, geometric mean, at least 6 replicates, read-out: anti-CD3 PBMC/IL-2 IC50
Method: Human peripheral blood mononuclear cells (PBMCs) were used to assess the effects of Kv1.3 inhibitor peptides on T-cell activation as determined by IL-2 release after stimulation with anti-CD3.
Human PBMCs were obtained from Precision for Medicine (Frederick, MD). Cells from 5 donors were used. Plate-bound anti-CD3 was used to stimulate bulk T cells in the PBMC preparations. Briefly, 96-well plates were coated with anti-CD3 antibody for app. 16 hours at 5° C., using 50 μl of a 1 μg/ml anti-CD3 solution diluted in PBS. Thereafter the plates were washed twice.
Peptides were subsequently diluted in medium (RPMI 1640 with Glutamax-I containing, 10% v/v Fetal Bovine Serum, 1% v/v penicillin-streptomycin Solution) and added in a volume of 50 μl. The peptides indicated in Table 4b were used at concentrations ranging from 0.3 pM to 1000 nM (half log dilutions, starting concentrations varying). Cyclosporin A (1 μg/ml) and Vm24 peptide (100 nM) were used as positive controls.
Finally, 50,000 PBMCs in the same medium were added to each well in a volume of 50 μl, giving a final volume of 100 μl per well. The plates were incubated for 20-24 hours in a 370C/5% CO2 incubator. After centrifugation of the plates, 25 μl supernatant was transferred to IL-2 detection plates (MSD Human IL-2 Tissue Culture Kit, cat #K151AHB-2) and IL-2 was measures as described by the manufacturer (Meso Scale Discovery, Rockville, Maryland, USA).
All values derive from at least 6 replicates.

T1 sequence (Q09470 whole entry): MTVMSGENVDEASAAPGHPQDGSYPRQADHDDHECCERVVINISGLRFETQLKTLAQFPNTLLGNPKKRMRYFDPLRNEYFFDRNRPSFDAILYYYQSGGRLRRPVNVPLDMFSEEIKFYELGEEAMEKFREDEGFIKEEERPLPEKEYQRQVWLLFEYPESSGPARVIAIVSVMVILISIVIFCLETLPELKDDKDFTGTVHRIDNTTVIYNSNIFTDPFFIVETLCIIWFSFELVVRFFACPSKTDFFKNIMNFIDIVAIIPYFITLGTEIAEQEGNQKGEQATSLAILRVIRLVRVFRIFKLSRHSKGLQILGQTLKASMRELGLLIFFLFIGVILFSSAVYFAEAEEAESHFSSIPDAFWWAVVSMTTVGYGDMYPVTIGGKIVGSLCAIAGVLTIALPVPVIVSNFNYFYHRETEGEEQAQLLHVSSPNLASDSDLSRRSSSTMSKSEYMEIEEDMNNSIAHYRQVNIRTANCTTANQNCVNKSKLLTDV
T3 sequence (P16389 whole entry): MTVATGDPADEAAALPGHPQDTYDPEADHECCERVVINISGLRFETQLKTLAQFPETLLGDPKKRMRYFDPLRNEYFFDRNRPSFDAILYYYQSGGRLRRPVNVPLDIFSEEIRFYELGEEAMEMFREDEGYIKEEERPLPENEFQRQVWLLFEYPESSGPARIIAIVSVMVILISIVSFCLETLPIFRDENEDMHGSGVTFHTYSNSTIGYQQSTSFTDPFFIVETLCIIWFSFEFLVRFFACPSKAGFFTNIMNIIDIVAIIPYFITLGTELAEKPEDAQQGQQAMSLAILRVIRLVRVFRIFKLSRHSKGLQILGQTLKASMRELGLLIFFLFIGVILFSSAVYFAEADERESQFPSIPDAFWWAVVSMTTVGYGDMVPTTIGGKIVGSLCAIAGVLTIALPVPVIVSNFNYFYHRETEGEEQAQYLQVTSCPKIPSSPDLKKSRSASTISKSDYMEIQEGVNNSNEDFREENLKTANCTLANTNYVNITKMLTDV
T2 sequence (P17658 whole entry): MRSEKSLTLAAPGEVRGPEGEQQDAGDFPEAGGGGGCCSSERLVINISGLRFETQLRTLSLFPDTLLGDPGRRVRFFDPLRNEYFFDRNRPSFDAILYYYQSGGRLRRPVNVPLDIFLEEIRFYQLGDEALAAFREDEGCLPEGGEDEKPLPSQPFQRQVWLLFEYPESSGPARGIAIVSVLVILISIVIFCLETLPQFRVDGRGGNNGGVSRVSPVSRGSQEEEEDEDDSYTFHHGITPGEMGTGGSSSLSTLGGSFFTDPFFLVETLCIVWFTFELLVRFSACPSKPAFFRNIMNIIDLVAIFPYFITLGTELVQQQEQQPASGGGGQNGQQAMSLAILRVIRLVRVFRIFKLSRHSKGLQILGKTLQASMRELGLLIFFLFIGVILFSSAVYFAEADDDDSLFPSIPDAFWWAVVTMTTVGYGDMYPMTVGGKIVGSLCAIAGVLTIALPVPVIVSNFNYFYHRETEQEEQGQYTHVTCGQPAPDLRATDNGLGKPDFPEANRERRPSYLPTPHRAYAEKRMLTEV
T4 sequence (P22001 whole entry): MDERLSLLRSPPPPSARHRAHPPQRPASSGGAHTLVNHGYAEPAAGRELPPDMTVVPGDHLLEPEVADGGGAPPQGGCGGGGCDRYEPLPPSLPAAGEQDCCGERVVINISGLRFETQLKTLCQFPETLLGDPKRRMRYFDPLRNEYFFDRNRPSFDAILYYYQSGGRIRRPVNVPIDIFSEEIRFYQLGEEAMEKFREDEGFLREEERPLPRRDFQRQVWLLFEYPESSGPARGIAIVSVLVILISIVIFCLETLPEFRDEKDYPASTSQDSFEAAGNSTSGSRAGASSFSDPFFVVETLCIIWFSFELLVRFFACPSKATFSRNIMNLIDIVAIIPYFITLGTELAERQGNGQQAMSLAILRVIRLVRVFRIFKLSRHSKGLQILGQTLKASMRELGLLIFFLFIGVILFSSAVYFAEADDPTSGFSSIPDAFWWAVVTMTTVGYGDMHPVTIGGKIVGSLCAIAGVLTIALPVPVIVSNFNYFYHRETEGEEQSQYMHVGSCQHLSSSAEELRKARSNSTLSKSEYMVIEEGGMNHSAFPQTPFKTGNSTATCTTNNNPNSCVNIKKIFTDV

| Substance | IC50 [1] | Selectivity Kv1.1/Kv1.3 [1] | IC50 [2] | Selectivity Kv1.6/Kv1.3 [2] | IC50 [3] | IC50 [4] | Selectivity Kv1.2/Kv1.3 [4] | IC50 [5] | IC50 ([6]; read-out: Average IC50, IFN-g) | IC50 ([6]; read-out: Average IC50, IL-2) | IC50 ([6]; read-out: Average IC50, IL-17A) | comparison of IC50 (IL-2 secretion) with ShK186 / Moka1 ([7]; in words) | AUCINF [8] | Cmax [8] | T1/2 [8] | IC50 [7] | IC50 [9] |
| --- | --- | --- | --- | --- | --- | --- | --- | --- | --- | --- | --- | --- | --- | --- | --- | --- | --- |
| H-C(1)SASVEC(2)KQKC(3)LKAIGSIFGKC(1)[Nle]NKKC(2)KC(3)YPR-NH2 [Peptide 108] | > 3000 nM | >7000 | > 3000 nM | >7000 | 1.6 nM | > 3000 nM | >7000 | 0.43 nM | 0.081 nM | 0.12 nM | 0.23 nM | – | – | – | – | – | – |
| H-INVKCSLPQQCIKPCKDAGMRFGKCMNKKCRCYS-OH [Moka1, reference compound] | – | >300 | – | >300 | – | – | 31 | – | – | – | – | less potent in inhibiting IL-2 secretion | – | – | – | – | – |
| H-NMDMRC(1)SASVEC(2)KQKC(3)LAAIGSIFGKC(1)MNKKC(2)KC(3)YPR-NH2 [Peptide 53] | > 3000 nM | >27500 | > 3000 nM | >27500 | 0.69 nM | 88 nM | 803 | 0.11 nM | 0.11 nM | 0.083 nM | 0.26 nM | – | 0.0485 µM·h | 31.2 nM | 53.4 min | – | – |
| H-NMDMRC(1)SASVEC(2)KQKC(3)LDAIGSIFGKC(1)MNKKC(2)KC(3)YPR-NH2 [Peptide 21] | > 3000 nM | >14300 | 2530 nM | 12045 | 1.2 nM | 99 nM | 471 | 0.21 nM | – | – | – | – | – | – | – | 0.1 nM | – |
| H-NMDMRC(1)SASVEC(2)KQKC(3)LKAIGSIFGKC(1)MNKKC(2)KC(3)YPR-OH [Peptide 3] | > 3000 nM | >11300 | > 3000 nM | >11300 | 1 nM | 409 nM | 1540 | 0.27 nM | 0.058 nM | 0.022 nM | 0.044 nM | – | 0.0839 µM·h | 36.9 nM | 59.4 min | – | 0.06 nM |
| H-NMDMRC(1)SASVEC(2)KQKC(3)LKAIGSIFGKC(1)MNKKC(2)KC(3)YPRRRTA-NH2 [Peptide 24] | 626 nM | 4280 | 215 nM | 1472 | 0.57 nM | 28 nM | 191 | 0.15 nM | – | – | – | – | – | – | – | – | 0.06 nM |
| H-NMDMRC(1)SASVEC(2)KQKC(3)LKAIGSIFGKC(1)[Nle]NKKC(2)KC(3)YPR-NH2 [Peptide 17] | > 3000 nM | >12600 | 2460 nM | 10360 | – | 133 nM | 561 | 0.24 nM | – | – | – | – | – | – | – | 0.05 nM | – |
| H-NMDMRC(1)SASVEC(2)KQKC(3)LKAIGSRFGKC(1)MNKKC(2)KC(3)YPR-NH2 [Peptide 36] | > 3000 nM | >15000 | 192 nM | 963 | 2.5 nM | 18 nM | 88 | 0.2 nM | – | – | – | – | – | – | – | 0.1 nM | – |
| H-NMDMRC(1)SASVEC(2)KVKC(3)LKAIGSIFGKC(1)MNKKC(2)KC(3)YPR-NH2 [Peptide 18] | > 3000 nM | >7200 | 912 nM | 2182 | 0.88 nM | 66 nM | 159 | 0.42 nM | – | – | – | – | – | – | – | 0.4 nM | – |
| H-N[Nle]D[Nle]RC(1)SASVEC(2)KQSC(3)LKAIGSIFGKC(1)[Nle]NKKC(2)KC(3)YPR-NH2 [Peptide 49] | > 3000 nM | >8200 | > 3000 nM | >8200 | 0.63 nM | > 3000 nM | >8200 | 0.37 nM | – | – | – | – | – | – | – | – | 0.07 nM |
| H-PIE[Nle]RC(1)SASVEC(2)KQKC(3)LAAIGSIFGKC(1)[Nle]NKKC(2)KC(3)YPR-OH [Peptide 105] | > 3000 nM | >8600 | > 3000 nM | >8600 | 0.61 nM | 1970 nM | 5630 | 0.35 nM | – | – | – | – | 0.1318 µM·h | 58.6 nM | 54.6 min | – | – |
| H-P[Nle]D[Nle]RC(1)SASVEC(2)KQKC(3)LKAIGSIFGKC(1)[Nle]NKKC(2)KC(3)YPR-NH2 [Peptide 42] | > 3000 nM | >17100 | > 3000 nM | >17100 | 0.98 nM | 939 nM | 5362 | 0.18 nM | 0.046 nM | 0.03 nM | 0.058 nM | – | – | – | – | – | 0.03 nM |
| H-P[Nle]E[Nle]RC(1)SASVEC(2)AQKC(3)LAAIGSIFGKC(1)[Nle]NKKC(2)KC(3)YPR-OH [Peptide 107] | > 3000 nM | >5500 | > 3000 nM | >5500 | 1.2 nM | > 3000 nM | 5500 | 0.55 nM | – | – | – | – | 0.1766 µM·h | 68.4 nM | 81.6 min | – | – |
| H-QMDMRC(1)SASVEC(2)KQKC(3)LKAIGSIFGKC(1)MNKKC(2)KC(3)YPR-OH [Peptide 1] | > 3000 nM | >7900 | > 3000 nM | >7900 | 0.17 nM | 518 nM | 1364 | 0.38 nM | – | – | – | – | – | – | – | – | 0.09 nM |
